For 20 compounds, IC50, CC50 and Activity results are on record in ChEMBL document CHEMBL4325865, “Optimization of a fragment linking hit toward Dengue and Zika virus NS5 methyltransferases inhibitors” (Eur J Med Chem, 2019).

The target in one data set is Nonstructural protein 5 (Dengue virus, UniProt V5TFZ2). Briefly: Inhibition of DENV3 2'-O-MTase assessed as reduction in [3H]AdoMet transfer on to capped GpppAC4 RNA after 30 mins by microbeta liquid scintillation counting method. Further details: species or system dengue virus type 3.
Data set [1] deals with Genome polyprotein (Zika virus, UniProt Q32ZE1). Briefly: Inhibition of ZIKV 2'-O-MTase assessed as reduction in [3H]AdoMet transfer on to capped GpppAC4 RNA after 30 mins by microbeta liquid scintillation counting method.
In data set [2] the target is Genome polyprotein (West Nile virus, UniProt P06935). Briefly: Inhibition of WNV 2'-O-MTase assessed as reduction in [3H]AdoMet transfer on to capped GpppAC4 RNA after 30 mins by microbeta liquid scintillation counting method.
Data set [3] can be described thus: Cytotoxicity against African green monkey Vero E6 cells. The format is cell-based. To be noted: chlorocebus sabaeus, Vero E6 cells (Vero C1008).
The next data set has as its system dengue virus type 2. Briefly: Antiviral activity against DENV2 CNR 25679 infected in African green monkey Vero E6 cells assessed as reduction in viral replication up to 20 uM by RT-PCR analysis. It is filed as functional, organism-based. Conditions: Vero C1008.
In a further data set the test system is Zika virus. Kind of data set: Antiviral activity against ZIKV H/PF/2013 infected in African green monkey Vero E6 cells assessed as reduction in viral replication up to 20 uM by RT-PCR analysis. The format is functional, organism-based. To be noted: Vero C1008.
In the next data set the test system is Vero C1008. Kind of data set: Cytotoxicity against African green monkey Vero E6 cells up to 100 uM. The format is cell-based. To be noted: chlorocebus sabaeus.

Activity calls are given as the source filed them. The rule behind the calls is not given here.

Sequence of Genome polyprotein (West Nile virus, UniProt P06935) (P06935 2526-3430 limits assumed): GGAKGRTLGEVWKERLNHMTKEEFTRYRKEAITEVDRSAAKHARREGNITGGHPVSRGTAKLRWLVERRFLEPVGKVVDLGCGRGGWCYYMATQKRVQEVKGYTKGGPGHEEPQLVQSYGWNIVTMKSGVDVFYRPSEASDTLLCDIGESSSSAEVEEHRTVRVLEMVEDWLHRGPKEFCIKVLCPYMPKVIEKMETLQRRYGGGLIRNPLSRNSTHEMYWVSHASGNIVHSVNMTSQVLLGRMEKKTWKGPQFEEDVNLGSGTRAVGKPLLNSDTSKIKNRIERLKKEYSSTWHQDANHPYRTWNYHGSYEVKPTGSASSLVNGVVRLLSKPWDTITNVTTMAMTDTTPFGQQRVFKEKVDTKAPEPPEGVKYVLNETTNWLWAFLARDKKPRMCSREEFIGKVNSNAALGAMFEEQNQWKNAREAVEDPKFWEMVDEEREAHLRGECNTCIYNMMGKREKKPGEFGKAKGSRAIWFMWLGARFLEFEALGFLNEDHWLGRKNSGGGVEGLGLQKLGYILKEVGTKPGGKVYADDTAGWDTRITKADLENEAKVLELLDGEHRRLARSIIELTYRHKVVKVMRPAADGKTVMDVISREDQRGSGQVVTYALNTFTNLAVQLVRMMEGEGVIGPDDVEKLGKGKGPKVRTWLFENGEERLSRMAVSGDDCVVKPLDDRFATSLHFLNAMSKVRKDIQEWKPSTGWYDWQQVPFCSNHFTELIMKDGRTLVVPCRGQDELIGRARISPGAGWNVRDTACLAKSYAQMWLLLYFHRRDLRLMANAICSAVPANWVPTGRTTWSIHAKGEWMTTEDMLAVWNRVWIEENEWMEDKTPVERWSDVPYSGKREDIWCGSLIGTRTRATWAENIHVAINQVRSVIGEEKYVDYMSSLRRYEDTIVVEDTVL
Sequence of Genome polyprotein (Zika virus, UniProt Q32ZE1) (Q32ZE1 2517-3419 limits assumed): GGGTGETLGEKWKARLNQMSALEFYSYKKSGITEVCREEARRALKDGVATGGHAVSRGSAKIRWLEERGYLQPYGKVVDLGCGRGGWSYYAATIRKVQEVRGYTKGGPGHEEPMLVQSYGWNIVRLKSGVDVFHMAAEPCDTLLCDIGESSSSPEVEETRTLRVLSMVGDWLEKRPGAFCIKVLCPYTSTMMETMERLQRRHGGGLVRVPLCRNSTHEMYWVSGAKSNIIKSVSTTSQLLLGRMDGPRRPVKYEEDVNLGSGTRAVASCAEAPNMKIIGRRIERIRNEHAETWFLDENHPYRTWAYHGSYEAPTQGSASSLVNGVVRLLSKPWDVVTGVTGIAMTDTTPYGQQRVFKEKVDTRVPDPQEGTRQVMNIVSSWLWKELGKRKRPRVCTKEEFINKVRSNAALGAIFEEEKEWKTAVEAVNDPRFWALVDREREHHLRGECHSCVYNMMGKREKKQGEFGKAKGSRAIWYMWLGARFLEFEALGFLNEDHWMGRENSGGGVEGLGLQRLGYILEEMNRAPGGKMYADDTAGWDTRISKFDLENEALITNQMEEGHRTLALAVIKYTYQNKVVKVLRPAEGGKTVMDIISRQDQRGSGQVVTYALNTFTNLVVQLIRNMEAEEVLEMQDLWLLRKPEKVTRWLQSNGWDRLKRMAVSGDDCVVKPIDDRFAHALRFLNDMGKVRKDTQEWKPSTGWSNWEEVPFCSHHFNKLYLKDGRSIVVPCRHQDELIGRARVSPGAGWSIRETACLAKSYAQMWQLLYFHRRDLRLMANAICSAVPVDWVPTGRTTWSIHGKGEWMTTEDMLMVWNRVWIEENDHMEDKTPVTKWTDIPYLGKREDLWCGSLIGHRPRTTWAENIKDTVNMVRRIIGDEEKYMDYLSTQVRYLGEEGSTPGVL
Sequence of Nonstructural protein 5 (V5TFZ2 whole entry): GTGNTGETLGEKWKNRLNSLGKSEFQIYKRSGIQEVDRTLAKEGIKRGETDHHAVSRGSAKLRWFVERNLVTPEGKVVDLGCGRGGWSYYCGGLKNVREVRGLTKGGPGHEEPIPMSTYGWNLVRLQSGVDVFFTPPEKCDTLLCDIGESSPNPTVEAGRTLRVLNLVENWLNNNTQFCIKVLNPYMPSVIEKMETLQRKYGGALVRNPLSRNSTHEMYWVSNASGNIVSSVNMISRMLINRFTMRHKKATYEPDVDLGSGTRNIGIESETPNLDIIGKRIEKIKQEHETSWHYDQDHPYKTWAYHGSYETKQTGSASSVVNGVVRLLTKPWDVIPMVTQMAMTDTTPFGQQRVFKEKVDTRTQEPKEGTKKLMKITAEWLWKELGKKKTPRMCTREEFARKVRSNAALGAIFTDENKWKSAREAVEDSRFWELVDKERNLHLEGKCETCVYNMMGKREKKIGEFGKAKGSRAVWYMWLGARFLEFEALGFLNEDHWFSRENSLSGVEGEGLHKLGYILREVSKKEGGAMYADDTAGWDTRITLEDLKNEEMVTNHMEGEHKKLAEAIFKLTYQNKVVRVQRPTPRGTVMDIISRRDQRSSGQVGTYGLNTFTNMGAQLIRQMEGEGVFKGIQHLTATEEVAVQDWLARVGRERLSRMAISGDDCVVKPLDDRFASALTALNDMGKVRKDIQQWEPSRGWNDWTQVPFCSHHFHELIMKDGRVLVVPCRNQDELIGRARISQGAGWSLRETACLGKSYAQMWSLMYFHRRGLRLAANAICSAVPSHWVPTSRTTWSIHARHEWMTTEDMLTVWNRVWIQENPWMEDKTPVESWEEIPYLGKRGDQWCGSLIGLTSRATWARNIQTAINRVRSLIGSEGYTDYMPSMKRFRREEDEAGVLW

The IC50 is the concentration that gives 50% inhibition. For the compound `Nc1cc(C(F)(F)F)ccc1NC(=O)Nc1cccc(S(=O)(=O)Nc2ccc(CC(=O)O)cc2)c1`, the IC50 on Nonstructural protein 5 worked out at 144 µM; on Genome polyprotein [1] it was 135 µM.
`Nc1cc(C(F)(F)F)ccc1NC(=O)Nc1cccc(S(=O)(=O)Nc2ccc(C(=O)O)cc2)c1`: the IC50 was 51 to 299 µM on Genome polyprotein [2], 91 µM on Nonstructural protein 5 and 24 µM at Genome polyprotein [1].
Turning to `COC(=O)CCCNS(=O)(=O)c1cccc(NC(=O)Nc2ccc(C(F)(F)F)cc2[N+](=O)[O-])c1`, the IC50 on Nonstructural protein 5 and on Genome polyprotein [1] was 400 µM each time.
In general, CC50 refers to the concentration at which the toxic effect on the cells reaches its halfway point. `O=C(Nc1ccc(S(=O)(=O)NCc2cccc(C(=O)O)c2)cc1)Nc1ccc(C(F)(F)F)cc1[N+](=O)[O-]` came in with a CC50 in data set [3] of 70 µM. The result with dengue virus type 2 and with Zika virus was inactive. Besides, the IC50 worked out at 145 µM at Nonstructural protein 5 and 83 µM on Genome polyprotein [1].
In the case of `CN1CCC(CNS(=O)(=O)c2ccc(NC(=O)Nc3ccc(C(F)(F)F)cc3N)cc2)C1` (stereo not drawn), the IC50 on Nonstructural protein 5 and on Genome polyprotein [1] was 400 µM each time.
As to `O=C(O)Cc1ccc(NS(=O)(=O)c2cccc(NC(=O)Nc3ccc(C(F)(F)F)cc3[N+](=O)[O-])c2)cc1`, the IC50 on Nonstructural protein 5 was 181 µM; at Genome polyprotein [1], 185 µM.
Take `Nc1cc(Cl)ccc1NC(=O)Nc1ccc(S(=O)(=O)Nc2ccc(C(=O)O)cc2)cc1`: the IC50 on Genome polyprotein [2] is 51 to 299 µM; on Nonstructural protein 5, 435 µM; on Genome polyprotein [1], 87 µM.
With `Nc1cc(C(F)(F)F)ccc1NC(=O)Nc1ccc(S(=O)(=O)NCc2cccc(C(=O)O)c2)cc1`, in the data set with Vero C1008, the Activity result was “Non-Toxic”. The outcome in the data set on dengue virus type 2 and in the data set with Zika virus was inactive. Moreover, the figures for the IC50 at Nonstructural protein 5 and on Genome polyprotein [1] were 174 µM and 61 µM, respectively.
Take `Nc1cc(C(F)(F)F)ccc1NC(=O)Nc1cccc(S(=O)(=O)NCc2cccc(C(=O)O)c2)c1`: the IC50 was 304 µM on Nonstructural protein 5 and 95 µM at Genome polyprotein [1].
Taken in the same sequence, the figures for `CN1CCC(CNS(=O)(=O)c2ccc(NC(=O)Nc3ccc(C(F)(F)F)cc3[N+](=O)[O-])cc2)C1` (stereo not drawn) were 400 µM and 400 µM.
On to `Nc1cc(C(F)(F)F)ccc1NC(=O)Nc1cccc(S(=O)(=O)NCc2ccc(C(=O)O)cc2)c1`, for which the IC50 is 366 µM at Nonstructural protein 5 and 122 µM at Genome polyprotein [1].
For `O=C(Nc1cccc(S(=O)(=O)NCc2cccc(C(=O)O)c2)c1)Nc1ccc(C(F)(F)F)cc1[N+](=O)[O-]`, the values for the IC50 at Nonstructural protein 5 and on Genome polyprotein [1] were 400 µM and 136 µM, respectively.
As for `Nc1cc(Cl)ccc1NC(=O)Nc1cccc(S(=O)(=O)Nc2ccc(C(=O)O)cc2)c1`, the IC50 was 51 to 299 µM at Genome polyprotein [2], 452 µM on Nonstructural protein 5 and 221 µM at Genome polyprotein [1].
Taken in the same sequence, the figures for `Nc1cc(Cl)ccc1NC(=O)Nc1ccc(S(=O)(=O)Oc2ccc(C(=O)O)cc2)cc1` were 51 to 299 µM, 368 µM and 31 µM.
`Nc1cc(C(F)(F)F)ccc1NC(=O)Nc1ccc(S(=O)(=O)Oc2cccc(CC(=O)Oc3cccc(CC(=O)O)c3)c2)cc1`: the Activity entry with Vero C1008 is given as “Non-Toxic”. In addition, the outcome in the data set with dengue virus type 2 and with Zika virus was inactive. Moreover, the IC50 at Nonstructural protein 5 came to 24 µM; on Genome polyprotein [1], 19 µM.
With `O=C(O)Cc1cccc(OS(=O)(=O)c2ccc(NC(=O)Nc3ccc(C(F)(F)F)cc3[N+](=O)[O-])cc2)c1`, the CC50 in data set [3] is 37.5 µM. For the same compound, the result in the data set with dengue virus type 2 and in the data set with Zika virus was inactive. Also, the IC50 on Nonstructural protein 5 came to 26 µM; on Genome polyprotein [1] it was 28 µM.
For `Nc1cc(C(F)(F)F)ccc1NC(=O)Nc1ccc(S(=O)(=O)Oc2cccc(CC(=O)O)c2)cc1`, the half-inhibitory concentration (IC50) at Nonstructural protein 5 turned out to be 276 µM; on Genome polyprotein [1] it was 111 µM.
As to `Nc1cc(Cl)ccc1NC(=O)Nc1cccc(S(=O)(=O)Oc2ccc(C(=O)O)cc2)c1`, the IC50 was 51 to 299 µM on Genome polyprotein [2], 369 µM on Nonstructural protein 5 and 33 µM on Genome polyprotein [1].
In the case of `Nc1cc(C(F)(F)F)ccc1NC(=O)Nc1cccc(S(=O)(=O)NCCCC(=O)O)c1`, the IC50 on Nonstructural protein 5 came out at 342 µM; at Genome polyprotein [1], 132 µM.
As to `Nc1cc(C(F)(F)F)ccc1NC(=O)Nc1ccc(S(=O)(=O)Nc2ccc(C(=O)O)cc2)cc1`, the IC50 is 51 to 299 µM on Genome polyprotein [2], 110 µM at Nonstructural protein 5 and 67 µM at Genome polyprotein [1].
